Source: PubChem BioAssay (NCI)
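Values below derive from 48-hour exposures of cells grown in 96-well plates, with endpoints linearly interpolated between the two concentrations bracketing the appropriate inhibition level. TGI denotes the concentration required for complete inhibition of growth.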

How the values were obtained:
Experiment in all cases: inhibition of tumour cell growth, NCI panel, 48 h
[1] = tested on: 786-0 renal
[2] = tested on: A498 renal
[3] = tested on: A549 NSCLC
[4] = tested on: ACHN renal
[5] = tested on: BT-549 breast
[6] = tested on: CAKI-1 renal
[7] = tested on: CCRF-CEM leukemia
[8] = tested on: COLO 205 colon
[9] = tested on: DU-145 prostate
[10] = tested on: EKVX NSCLC
[11] = tested on: HCC-2998 colon
[12] = tested on: HCT-116 colon
[13] = tested on: HCT-15 colon
[14] = tested on: HL-60(TB) leukemia
[15] = tested on: HOP-62 NSCLC
[16] = tested on: HS 578T breast
[17] = tested on: HT29 colon
[18] = tested on: IGROV1 ovarian
[19] = tested on: K-562 leukemia
[20] = tested on: KM12 colon
[21] = tested on: LOX IMVI melanoma
[22] = tested on: M14 melanoma
[23] = tested on: MALME-3M melanoma
[24] = tested on: MCF7 breast
[25] = tested on: MDA-MB-231 breast
[26] = tested on: MDA-MB-435
[27] = tested on: MDA-N
[28] = tested on: MOLT-4 leukemia
[29] = tested on: NCI-H226 lung
[30] = tested on: NCI-H23 lung
[31] = tested on: NCI-H460 lung
[32] = tested on: NCI/ADR-RES ovarian
[33] = tested on: OVCAR-3 ovarian
[34] = tested on: OVCAR-4 ovarian
[35] = tested on: OVCAR-5 ovarian
[36] = tested on: OVCAR-8 ovarian
[37] = tested on: PC-3 prostate
[38] = tested on: RPMI-8226 leukemia
[39] = tested on: RXF 393 renal
[40] = tested on: SF-268 CNS
[41] = tested on: SF-295 CNS
[42] = tested on: SF-539 CNS
[43] = tested on: SK-MEL-28 melanoma
[44] = tested on: SK-MEL-5 melanoma
[45] = tested on: SK-OV-3 ovarian
[46] = tested on: SN12C renal
[47] = tested on: SNB-19 CNS
[48] = tested on: SNB-75 CNS
[49] = tested on: SR leukemia
[50] = tested on: SW-620 colon
[51] = tested on: TK-10 renal
[52] = tested on: U251 CNS
[53] = tested on: UACC-257 melanoma
[54] = tested on: UACC-62 melanoma
[55] = tested on: UO-31 renal
[56] = tested on: HOP-92 NSCLC
[57] = tested on: NCI-H522 lung
[58] = tested on: SK-MEL-2 melanoma

Cc1ccc(N2C3=C(CC4=C2CC(C)(C)CC4=O)C(=O)CC(C)(C)C3)cc1
TGI [1]: > 100 µM
TGI [2]: > 100 µM
TGI [3]: > 100 µM
TGI [4]: > 100 µM
TGI [5]: > 100 µM
TGI [6]: > 100 µM
TGI [7]: > 100 µM
TGI [8]: > 100 µM
TGI [9]: > 100 µM
TGI [10]: > 100 µM
TGI [11]: > 100 µM
TGI [12]: > 100 µM
TGI [13]: > 100 µM
TGI [14]: > 100 µM
TGI [15]: > 100 µM
TGI [16]: > 100 µM
TGI [17]: > 100 µM
TGI [18]: > 100 µM
TGI [19]: > 100 µM
TGI [20]: > 100 µM
TGI [21]: > 100 µM
TGI [22]: > 100 µM
TGI [23]: > 100 µM
TGI [24]: > 100 µM
TGI [25]: > 100 µM
TGI [26]: > 100 µM
TGI [27]: > 100 µM
TGI [28]: > 100 µM
TGI [29]: > 100 µM
TGI [30]: > 100 µM
TGI [31]: > 100 µM
TGI [32]: > 100 µM
TGI [33]: > 100 µM
TGI [34]: > 100 µM
TGI [35]: > 100 µM
TGI [36]: > 100 µM
TGI [37]: > 100 µM
TGI [38]: > 100 µM
TGI [39]: > 100 µM
TGI [40]: > 100 µM
TGI [41]: > 100 µM
TGI [42]: > 100 µM
TGI [43]: > 100 µM
TGI [44]: > 100 µM
TGI [45]: > 100 µM
TGI [46]: > 100 µM
TGI [47]: > 100 µM
TGI [48]: 82.6 µM
TGI [49]: > 100 µM
TGI [50]: > 100 µM
TGI [51]: > 100 µM
TGI [52]: > 100 µM
TGI [53]: > 100 µM
TGI [54]: > 100 µM
TGI [55]: > 100 µM

C=C(C1=CC(=O)C(C)(C)O1)[C@@H]1CC=C([C@@H]2CC[C@H]3[C@@]2(C)CC[C@H]2C(C)(C)C(=O)[C@H](OC(=O)CC(C)(O)CC(=O)O)C[C@]32C)[C@H](O)O1 (some centres undefined)
TGI [1]: 24.4 µM
TGI [2]: 26 µM
TGI [3]: 40.3 µM
TGI [4]: 25.4 µM
TGI [5]: 13.4 µM
TGI [6]: 45.8 µM
TGI [7]: 6.12 µM
TGI [8]: 24.5 µM
TGI [9]: 45.6 µM
TGI [10]: 29.8 µM
TGI [12]: 24 µM
TGI [13]: 24.9 µM
TGI [14]: 38.4 µM
TGI [15]: 35 µM
TGI [56]: 24.7 µM
TGI [16]: 66.7 µM
TGI [17]: 34.4 µM
TGI [18]: 26.3 µM
TGI [19]: > 75 µM
TGI [20]: 29.7 µM
TGI [21]: 25.9 µM
TGI [22]: 27 µM
TGI [23]: 28 µM
TGI [24]: 20.9 µM
TGI [25]: 35.8 µM
TGI [26]: 34.2 µM
TGI [27]: 30.5 µM
TGI [28]: 30.8 µM
TGI [29]: 31.3 µM
TGI [30]: 27.5 µM
TGI [31]: 40.7 µM
TGI [57]: 25.4 µM
TGI [32]: 51.3 µM
TGI [33]: 23.6 µM
TGI [35]: 26.5 µM
TGI [36]: 29.1 µM
TGI [37]: 30.2 µM
TGI [38]: 5.24 µM
TGI [39]: 17 µM
TGI [40]: 24.4 µM
TGI [41]: > 75 µM
TGI [42]: 24.7 µM
TGI [58]: 26.7 µM
TGI [44]: 24.4 µM
TGI [45]: 46.9 µM
TGI [46]: 28 µM
TGI [47]: > 75 µM
TGI [49]: 49.2 µM
TGI [50]: 25.4 µM
TGI [51]: > 75 µM
TGI [52]: 25.2 µM
TGI [53]: 35.6 µM
TGI [54]: 23.5 µM
TGI [55]: 26.3 µM
